Measurements from ChEMBL document CHEMBL1629674, “Surveillance of carbapenem-resistant Pseudomonas aeruginosa isolates from Puerto Rican Medical Center Hospitals: dissemination of KPC and IMP-18 beta-lactamases” (2009).

Key:
Pseudomonas aeruginosa [1] = assay: Antimicrobial activity against OprD overproducing Pseudomonas aeruginosa PAO1 expressing mexA and oprD by agar dilution method in presence of beta-lactamase inhibitor Tazobactam; format: functional
Pseudomonas aeruginosa [2] = assay: Antimicrobial activity against Pseudomonas aeruginosa PS2 with PFGE phenotype 10B obtained from urine of ICU patient by agar dilution method in presence of beta-lactamase inhibitor tazobactam; format: functional
Pseudomonas aeruginosa [3] = assay: Antimicrobial activity against Pseudomonas aeruginosa PS3 with PFGE phenotype 12 obtained from sputum of ICU patient by agar dilution method in presence of beta-lactamase inhibitor tazobactam; format: functional
Pseudomonas aeruginosa [4] = assay: Antimicrobial activity against Pseudomonas aeruginosa PS4 with PFGE phasotype 9B expressing beta-lactamase IMP-18 obtained from sputum of patient by agar dilution method in presence of beta-lactamase inhibitor Tazobactam; format: functional
Pseudomonas aeruginosa [5] = assay: Antimicrobial activity against Pseudomonas aeruginosa PS5 with PFGE phenotype 7A expressing beta-lactamase KPC-2 obtained from sputum of ICU patient by agar dilution method in presence of beta-lactamase inhibitor tazobactam; format: functional
Pseudomonas aeruginosa [6] = assay: Antimicrobial activity against Pseudomonas aeruginosa PS6A with PFGE phenotype 11A obtained from sputum of ICU patient by agar dilution method in presence of beta-lactamase inhibitor tazobactam; format: functional
Pseudomonas aeruginosa [7] = assay: Antimicrobial activity against Pseudomonas aeruginosa PS7A with PFGE phenotype 11D obtained from urine of ICU patient by agar dilution method in presence of beta-lactamase inhibitor tazobactam; format: functional
Pseudomonas aeruginosa [8] = assay: Antimicrobial activity against Pseudomonas aeruginosa PS9 with PFGE phenotype 3B obtained from sputum of patient by agar dilution method in presence of beta-lactamase inhibitor tazobactam; format: functional
Pseudomonas aeruginosa [9] = assay: Antimicrobial activity against Pseudomonas aeruginosa PS10 with PFGE phenotype 1A expressing beta-lactamase KPC-2 obtained from blood of patient by agar dilution method in presence of beta-lactamase inhibitor tazobactam; format: functional
Pseudomonas aeruginosa [10] = assay: Antimicrobial activity against Pseudomonas aeruginosa PS11A with PFGE phasotype 7A obtained from sputum of ICU patient by agar dilution method in presence of beta-lactamase inhibitor Tazobactam; format: functional
Pseudomonas aeruginosa [11] = assay: Antimicrobial activity against Pseudomonas aeruginosa PS12 with PFGE phasotype 7B obtained from sputum of patient by agar dilution method in presence of beta-lactamase inhibitor Tazobactam; format: functional
Pseudomonas aeruginosa [12] = assay: Antimicrobial activity against Pseudomonas aeruginosa PS13 with PFGE phenotype 11E obtained from sputum of ICU patient by agar dilution method in presence of beta-lactamase inhibitor tazobactam; format: functional
Pseudomonas aeruginosa [13] = assay: Antimicrobial activity against Pseudomonas aeruginosa PS14 with PFGE phenotype 10C obtained from sputum of ICU patient by agar dilution method in presence of beta-lactamase inhibitor tazobactam; format: functional
Pseudomonas aeruginosa [14] = assay: Antimicrobial activity against Pseudomonas aeruginosa PS15A with PFGE phasotype 10A obtained from blood of patient by agar dilution method in presence of beta-lactamase inhibitor Tazobactam; format: functional
Pseudomonas aeruginosa [15] = assay: Antimicrobial activity against Pseudomonas aeruginosa PS17B with PFGE phenotype 11D expressing beta-lactamase KPC-2 obtained from blood of ICU patient by agar dilution method in presence of beta-lactamase inhibitor tazobactam; format: functional
Pseudomonas aeruginosa [16] = assay: Antimicrobial activity against Pseudomonas aeruginosa PS18A with PFGE phenotype 11D obtained from CSF of ICU patient by agar dilution method in presence of beta-lactamase inhibitor tazobactam; format: functional
Pseudomonas aeruginosa [17] = assay: Antimicrobial activity against Pseudomonas aeruginosa PS19A with PFGE phenotype 11C obtained from urine of patient by agar dilution method in presence of beta-lactamase inhibitor tazobactam; format: functional
Pseudomonas aeruginosa [18] = assay: Antimicrobial activity against Pseudomonas aeruginosa PS20A with PFGE phenotype 11D obtained from skin of patient by agar dilution method in presence of beta-lactamase inhibitor tazobactam; format: functional
Pseudomonas aeruginosa [19] = assay: Antimicrobial activity against Pseudomonas aeruginosa PS21 with PFGE phenotype 11F obtained from skin of patient by agar dilution method in presence of beta-lactamase inhibitor tazobactam; format: functional
Pseudomonas aeruginosa [20] = assay: Antimicrobial activity against Pseudomonas aeruginosa PS22 with PFGE phenotype 3A obtained from urine of patient by agar dilution method in presence of beta-lactamase inhibitor tazobactam; format: functional
Pseudomonas aeruginosa [21] = assay: Antimicrobial activity against Pseudomonas aeruginosa PS23 with PFGE phasotype 4A expressing beta-lactamase KPC-2 obtained from blood of patient by agar dilution method in presence of beta-lactamase inhibitor Tazobactam; format: functional
Pseudomonas aeruginosa [22] = assay: Antimicrobial activity against Pseudomonas aeruginosa PS25 with PFGE phenotype 1A obtained from sputum of patient by agar dilution method in presence of beta-lactamase inhibitor tazobactam; format: functional
Pseudomonas aeruginosa [23] = assay: Antimicrobial activity against Pseudomonas aeruginosa PS26 with PFGE phenotype 3A expressing beta-lactamase OXA-2 obtained from sputum of ICU patient by agar dilution method in presence of beta-lactamase inhibitor tazobactam; format: functional
Pseudomonas aeruginosa [24] = assay: Antimicrobial activity against Pseudomonas aeruginosa PS28 with PFGE phenotype 6 expressing beta-lactamase KPC-5 obtained from skin of patient by agar dilution method in presence of beta-lactamase inhibitor tazobactam; format: functional
Pseudomonas aeruginosa [25] = assay: Antimicrobial activity against Pseudomonas aeruginosa PS29 with PFGE phenotype 11D obtained from sputum of patient by agar dilution method in presence of beta-lactamase inhibitor tazobactam; format: functional
Pseudomonas aeruginosa [26] = assay: Antimicrobial activity against Pseudomonas aeruginosa PS30 with PFGE phenotype 11D obtained from sputum of patient by agar dilution method in presence of beta-lactamase inhibitor tazobactam; format: functional
Pseudomonas aeruginosa [27] = assay: Antimicrobial activity against Pseudomonas aeruginosa PS31 with PFGE phenotype 11B obtained from skin of patient by agar dilution method in presence of beta-lactamase inhibitor tazobactam; format: functional
Pseudomonas aeruginosa [28] = assay: Antimicrobial activity against Pseudomonas aeruginosa PS33 with PFGE phasotype 9A obtained from blood of patient by agar dilution method in presence of beta-lactamase inhibitor Tazobactam; format: functional
Pseudomonas aeruginosa [29] = assay: Antimicrobial activity against Pseudomonas aeruginosa PS34 with PFGE phenotype 4A obtained from blood of ICU patient by agar dilution method in presence of beta-lactamase inhibitor tazobactam; format: functional
Pseudomonas aeruginosa [30] = assay: Antimicrobial activity against Pseudomonas aeruginosa PS35 with PFGE phenotype 11A obtained from urine of patient by agar dilution method in presence of beta-lactamase inhibitor tazobactam; format: functional
Pseudomonas aeruginosa [31] = assay: Antimicrobial activity against Pseudomonas aeruginosa PS36 with PFGE phenotype 11B obtained from urine of patient by agar dilution method in presence of beta-lactamase inhibitor tazobactam; format: functional
Pseudomonas aeruginosa [32] = assay: Antimicrobial activity against Pseudomonas aeruginosa PS37 with PFGE phasotype 11D obtained from sputum of patient by agar dilution method in presence of beta-lactamase inhibitor Tazobactam; format: functional
Pseudomonas aeruginosa [33] = assay: Antimicrobial activity against Pseudomonas aeruginosa PS39 with PFGE phenotype 8 expressing beta-lactamase IMP-18 obtained from urine of patient by agar dilution method in presence of beta-lactamase inhibitor tazobactam; format: functional
Pseudomonas aeruginosa [34] = assay: Antimicrobial activity against Pseudomonas aeruginosa PS40 with PFGE phenotype 5 expressing beta-lactamase KPC-2, OXA-2 obtained from urine of patient by agar dilution method in presence of beta-lactamase inhibitor tazobactam; format: functional
Pseudomonas aeruginosa [35] = assay: Antimicrobial activity against Pseudomonas aeruginosa PS41 with PFGE phenotype 11D obtained from urine of patient by agar dilution method in presence of beta-lactamase inhibitor tazobactam; format: functional
Pseudomonas aeruginosa [36] = assay: Antimicrobial activity against Pseudomonas aeruginosa PS43 with PFGE phasotype 2 expressing beta-lactamase KPC-2, OXA-2 obtained from skin of ICU patient by agar dilution method in presence of beta-lactamase inhibitor Tazobactam; format: functional
Pseudomonas aeruginosa [37] = assay: Antimicrobial activity against Pseudomonas aeruginosa PS44 with PFGE phenotype 13 expressing beta-lactamase IMP-18 obtained from blood of patient by agar dilution method in presence of beta-lactamase inhibitor tazobactam; format: functional
Pseudomonas aeruginosa [38] = assay: Antimicrobial activity against Pseudomonas aeruginosa PS1 with PFGE phenotype 9C negative for blaIMP, blaVIM and blaKPC obtained from sputum of patient by agar dilution method in presence of beta-lactamase inhibitor tazobactam

SMILES: CCN1CCN(C(=O)N[C@@H](C(=O)N[C@@H]2C(=O)N3[C@@H]2SC(C)(C)[C@@H]3C(=O)O)c2ccccc2)C(=O)C1=O [PIPERACILLIN]
- MIC (Pseudomonas aeruginosa [1]): 4 µg/mL
- MIC (Pseudomonas aeruginosa [2]): 4 µg/mL
- MIC (Pseudomonas aeruginosa [3]): 8 µg/mL
- MIC (Pseudomonas aeruginosa [4]): 64 µg/mL
- MIC (Pseudomonas aeruginosa [5]): > 256 µg/mL
- MIC (Pseudomonas aeruginosa [6]): > 256 µg/mL
- MIC (Pseudomonas aeruginosa [7]): > 256 µg/mL
- MIC (Pseudomonas aeruginosa [8]): 64 µg/mL
- MIC (Pseudomonas aeruginosa [9]): > 256 µg/mL
- MIC (Pseudomonas aeruginosa [10]): > 256 µg/mL
- MIC (Pseudomonas aeruginosa [11]): > 256 µg/mL
- MIC (Pseudomonas aeruginosa [12]): > 256 µg/mL
- MIC (Pseudomonas aeruginosa [13]): 4 µg/mL
- MIC (Pseudomonas aeruginosa [14]): 8 µg/mL
- MIC (Pseudomonas aeruginosa [15]): > 256 µg/mL
- MIC (Pseudomonas aeruginosa [16]): > 256 µg/mL
- MIC (Pseudomonas aeruginosa [17]): > 256 µg/mL
- MIC (Pseudomonas aeruginosa [18]): > 256 µg/mL
- MIC (Pseudomonas aeruginosa [19]): > 256 µg/mL
- MIC (Pseudomonas aeruginosa [20]): 256 µg/mL
- MIC (Pseudomonas aeruginosa [21]): > 256 µg/mL
- MIC (Pseudomonas aeruginosa [22]): > 256 µg/mL
- MIC (Pseudomonas aeruginosa [23]): 128 µg/mL
- MIC (Pseudomonas aeruginosa [24]): 128 µg/mL
- MIC (Pseudomonas aeruginosa [25]): > 256 µg/mL
- MIC (Pseudomonas aeruginosa [26]): > 256 µg/mL
- MIC (Pseudomonas aeruginosa [27]): > 256 µg/mL
- MIC (Pseudomonas aeruginosa [28]): 32 µg/mL
- MIC (Pseudomonas aeruginosa [29]): > 256 µg/mL
- MIC (Pseudomonas aeruginosa [30]): > 256 µg/mL
- MIC (Pseudomonas aeruginosa [31]): > 256 µg/mL
- MIC (Pseudomonas aeruginosa [32]): > 256 µg/mL
- MIC (Pseudomonas aeruginosa [33]): 128 µg/mL
- MIC (Pseudomonas aeruginosa [34]): 128 µg/mL
- MIC (Pseudomonas aeruginosa [35]): > 256 µg/mL
- MIC (Pseudomonas aeruginosa [36]): 256 µg/mL
- MIC (Pseudomonas aeruginosa [37]): 32 µg/mL
- MIC (Pseudomonas aeruginosa [38]): 8 µg/mL
